Experimental data reported in patent US12570752B2, “Combination therapy with an anti BCMA antibody and a gamma secretase inhibitor” (priority 2019, dated 2026).

Key:
[1] = cited from earlier work
[2] = cited from earlier work; remark: listed apart in the source
[3] = system: multiple myeloma cell line L363; assay: L363 cell viability, nirogacestat pre-treatment then belantamab mafodotin or controls; assay type: cell-based; conditions: nirogacestat pre-treatment 24 hours, then treatment for additional 72 hours

Row | Compound | time to pharmacodynamically active plasma levels ([1]; after treatment initiation) [h] | exposure versus dose ([1]; between 20 and 330 mg BID) | time to steady-state ([1]; repeated BID administration) [days] | incidence of dose-limiting diarrhea and elevated liver enzymes ([2]; compared with RO4929097 or MK-0752 (Messersmith, 2015)) | safety profile versus other gamma-secretase inhibitors ([2]; in vivo) | incidence of secondary primary malignancies (SPM) or treatment-emergent infections ([2]; unlike e.g. semagacestat (Messersmith, 2015; Henley, 2014)) | effect on cell viability [3]
1 | CCC[C@H](N[C@H]1CCc2cc(F)cc(F)c2C1)C(=O)Nc1cn(C(C)(C)CNCC(C)(C)C)cn1 [nirogacestat, (S)-2-(((S)-6,8-difluoro-1,2,3,4-tetrahydronaphthalen-2-yl)amino)-N-(1-(2-methyl-1-(neopentylamino)propan-2-yl)-1H-imidazol-4-yl)pentanamide] | < 48 | dose-proportional | ≤ 8 | does not appear to be as high | better safety profile | there does not seem to be an increased incidence | no effect
2 | Belantamab |  |  |  |  |  |  | no effect
